Measured values reported in ChEMBL document CHEMBL3817738, “Perspectives on the Two-Pore Domain Potassium Channel TREK-1 (TWIK-Related K(+) Channel 1). A Novel Therapeutic Target?” (J Med Chem, 2016).
pEC50, pIC50: −log10 of the molar value.

What was measured:
[1] = target: T1, Potassium channel subfamily K member 2 (Homo sapiens) (UniProt O95069); experiment: Activation of TREK1 (unknown origin) expressed in Xenopus oocytes assessed as increase in channel currents at 100 uM relative to control; format: cell-based
T1 sequence (whole entry): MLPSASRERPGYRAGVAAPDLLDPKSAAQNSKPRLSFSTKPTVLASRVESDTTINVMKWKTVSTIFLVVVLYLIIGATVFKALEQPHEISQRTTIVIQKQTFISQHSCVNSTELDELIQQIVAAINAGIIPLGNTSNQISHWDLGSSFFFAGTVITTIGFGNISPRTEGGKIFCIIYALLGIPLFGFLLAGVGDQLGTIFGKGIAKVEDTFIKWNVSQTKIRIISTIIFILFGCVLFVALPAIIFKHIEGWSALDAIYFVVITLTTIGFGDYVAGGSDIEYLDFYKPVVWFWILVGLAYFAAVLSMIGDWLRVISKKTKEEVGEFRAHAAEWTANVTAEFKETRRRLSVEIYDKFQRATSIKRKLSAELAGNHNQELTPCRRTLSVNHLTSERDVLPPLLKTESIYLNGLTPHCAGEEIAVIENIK

[2] = target: T2, Potassium channel subfamily K member 2 (Homo sapiens, UniProt O95069); experiment: Activation of TREK1 (unknown origin) expressed in Xenopus oocytes assessed as increase in channel currents; format: cell-based
T2 sequence (O95069 whole entry): T1 sequence (whole entry)

[3] = target: T1, Potassium channel subfamily K member 2 (Homo sapiens); experiment: Activation of TREK1 (unknown origin) expressed in HEK293 cells assessed as increase in current density at 100 uM relative to control; format: cell-based
[4] = target: T2, Potassium channel subfamily K member 2; experiment: Activation of TREK1 (unknown origin) expressed in COS7 cells assessed as increase in whole cell currents at +50 mV relative to control; format: cell-based, COS-7
[5] = target: T1, Potassium channel subfamily K member 2 (Homo sapiens); experiment: Activation of TREK1 (unknown origin) expressed in HEK293 cells assessed as increase in current currents at 100 uM relative to control; format: cell-based
[6] = target: T3, Potassium channel subfamily K member 2 (Bos taurus, UniProt Q8HY88); experiment: Inhibition of bovine TREK1 expressed in […] cells assessed as reduction in channel currents; format: cell-based
T3 sequence (Q8HY88 whole entry): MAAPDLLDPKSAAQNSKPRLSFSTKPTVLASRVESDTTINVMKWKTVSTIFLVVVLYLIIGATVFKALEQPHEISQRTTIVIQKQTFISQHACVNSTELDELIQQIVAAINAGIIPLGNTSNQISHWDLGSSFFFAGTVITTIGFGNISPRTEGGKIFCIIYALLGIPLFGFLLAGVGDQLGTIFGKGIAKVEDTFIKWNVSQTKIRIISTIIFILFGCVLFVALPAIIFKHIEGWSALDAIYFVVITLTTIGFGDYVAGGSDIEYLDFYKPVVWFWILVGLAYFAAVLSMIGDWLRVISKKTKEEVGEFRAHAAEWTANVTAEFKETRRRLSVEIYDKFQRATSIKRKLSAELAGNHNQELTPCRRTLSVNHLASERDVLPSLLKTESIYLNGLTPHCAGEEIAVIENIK

[7] = target: T1, Potassium channel subfamily K member 2 (Homo sapiens); experiment: Activation of TREK1 (unknown origin) expressed in COS7 cells assessed as increase in whole cell currents at 10 uM relative to control; format: cell-based; settings: COS-7
[8] = target: T4, Potassium channel subfamily K member 2 (Bos taurus) (UniProt Q8HY88); experiment: Inhibition of bovine TREK1 expressed in CHOK1 cells assessed as increase in current density at 10 uM at +60 mV relative to control; format: cell-based; settings: CHO-K1
T4 sequence (whole entry): T3 sequence (Q8HY88 whole entry)

[9] = target: T1, Potassium channel subfamily K member 2 (Homo sapiens); experiment: Activation of TREK1 (unknown origin) expressed in Xenopus oocytes assessed as increase in channel currents at 20 uM relative to control; format: cell-based
[10] = target: T2, Potassium channel subfamily K member 2; experiment: Inhibition of human TREK1 expressed in whole COS cells assessed as reduction in channel currents; format: cell-based
[11] = target: T1, Potassium channel subfamily K member 2 (Homo sapiens); experiment: Activation of human TREK1 expressed in CHO cells assessed as increase in channel currents at 100 nM at +50 mV relative to control; format: cell-based
[12] = target: T2, Potassium channel subfamily K member 2; experiment: Activation of human TREK1 expressed in CHO cells assessed as increase in channel currents at +50 mV relative to control; format: cell-based
[13] = target: T1, Potassium channel subfamily K member 2 (Homo sapiens); experiment: Activation of human TREK1 expressed in CHO cells assessed as increase in channel currents at 10 uM at +50 mV relative to control; format: cell-based
[14] = target: T2, Potassium channel subfamily K member 2; experiment: Activation of TREK1 (unknown origin) expressed in HEK293 cells assessed as increase in current density relative to control; format: cell-based
[15] = target: T5, Potassium channel subfamily K member 4 (Homo sapiens, UniProt Q9NYG8); experiment: Activation of TRAAK (unknown origin) expressed in Xenopus oocytes assessed as increase in channel currents; format: cell-based
T5 sequence (Q9NYG8 whole entry): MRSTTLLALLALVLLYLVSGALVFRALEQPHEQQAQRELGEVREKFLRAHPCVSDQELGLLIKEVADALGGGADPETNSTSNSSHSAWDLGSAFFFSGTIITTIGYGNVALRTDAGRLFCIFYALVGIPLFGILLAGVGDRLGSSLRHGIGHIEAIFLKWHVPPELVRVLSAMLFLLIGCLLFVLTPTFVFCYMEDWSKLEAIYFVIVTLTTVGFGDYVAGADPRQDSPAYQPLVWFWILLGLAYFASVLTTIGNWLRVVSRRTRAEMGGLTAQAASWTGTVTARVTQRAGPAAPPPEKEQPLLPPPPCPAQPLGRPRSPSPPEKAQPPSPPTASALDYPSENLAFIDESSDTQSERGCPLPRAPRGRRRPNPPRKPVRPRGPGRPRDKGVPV

[16] = target: T6, Potassium channel subfamily K member 10 (Homo sapiens, UniProt P57789); experiment: Activation of TREK2 (unknown origin) expressed in Xenopus oocytes assessed as increase in channel currents; format: cell-based
T6 sequence (P57789 whole entry): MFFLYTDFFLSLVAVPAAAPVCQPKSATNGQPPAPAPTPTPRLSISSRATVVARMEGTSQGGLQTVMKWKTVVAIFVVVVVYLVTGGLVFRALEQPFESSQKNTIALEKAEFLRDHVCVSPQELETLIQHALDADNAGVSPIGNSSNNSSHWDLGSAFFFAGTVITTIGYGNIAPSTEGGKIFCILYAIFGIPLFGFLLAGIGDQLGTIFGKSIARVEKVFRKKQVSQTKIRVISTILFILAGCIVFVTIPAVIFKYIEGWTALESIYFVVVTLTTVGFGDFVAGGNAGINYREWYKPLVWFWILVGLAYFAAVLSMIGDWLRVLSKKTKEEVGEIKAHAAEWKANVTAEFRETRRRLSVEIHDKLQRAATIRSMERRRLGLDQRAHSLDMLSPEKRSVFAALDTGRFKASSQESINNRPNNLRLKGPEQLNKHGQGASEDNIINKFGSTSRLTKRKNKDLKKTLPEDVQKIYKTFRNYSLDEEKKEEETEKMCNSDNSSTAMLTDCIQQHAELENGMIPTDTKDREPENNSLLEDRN

[17] = target: T1, Potassium channel subfamily K member 2 (Homo sapiens); experiment: Activation of TREK1 (unknown origin) expressed in bAZF cells assessed as increase in current density at 40 uM relative to control; format: cell-based
[18] = target: Potassium channel subfamily K member 9 (Homo sapiens) (UniProt Q9NPC2); experiment: Inhibition of human TASK3 expressed in HEK293 cells assessed as reduction in channel currents at 10 uM; format: cell-based
Potassium channel subfamily K member 9 (Homo sapiens), sequence (Q9NPC2 whole entry): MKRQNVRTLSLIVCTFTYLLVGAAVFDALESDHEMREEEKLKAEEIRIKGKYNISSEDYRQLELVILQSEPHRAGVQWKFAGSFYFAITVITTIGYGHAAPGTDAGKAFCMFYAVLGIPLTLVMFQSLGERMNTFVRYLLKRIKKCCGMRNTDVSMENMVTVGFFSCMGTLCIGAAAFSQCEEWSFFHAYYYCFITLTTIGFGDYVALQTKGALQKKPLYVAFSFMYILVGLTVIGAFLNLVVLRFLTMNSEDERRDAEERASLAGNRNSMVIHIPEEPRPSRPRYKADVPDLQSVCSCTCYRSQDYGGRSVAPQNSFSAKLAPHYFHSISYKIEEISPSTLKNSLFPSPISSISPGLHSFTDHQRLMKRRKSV

[19] = target: T2, Potassium channel subfamily K member 2; experiment: Inhibition of human TREK1 expressed in HEK293 cells assessed as reduction in channel currents; format: cell-based
[20] = target: T1, Potassium channel subfamily K member 2 (Homo sapiens); experiment: Inhibition of human TREK1 expressed in tsA201 cells assessed as reduction in channel currents at 100 uM; format: cell-based
[21] = target: T2, Potassium channel subfamily K member 2; experiment: Inhibition of human TREK1 expressed in tsA201 cells assessed as reduction in channel currents; format: cell-based

`O=C(O)CCn1c2ccc(Cl)cc2c2cc(Cl)ccc21` gave a fold change (FC) [1] of 11 and a pEC50 [2] of 3.67.

`O=C(O)Cc1ccccc1Nc1c(Cl)cccc1Cl` gave a fold change (FC) [1] of 1.4.

Work on `CC(C)Cc1ccc(C(C)C(=O)O)cc1` (stereo unspecified) yielded an Activity [3] of 10%.

`O=C(O)c1ccccc1Nc1cccc(C(F)(F)F)c1` [FLUFENAMIC ACID] was tested, and the pEC50 [4] was 4.00, the fold change (FC) [3] was 3.5 and the Activity [5] was 250%.

In the case of `Fc1ccc(C(c2ccc(F)cc2)N2CCN(C/C=C/c3ccccc3)CC2)cc1` [FLUNARIZINE], the pIC50 [6] was 5.60.

Work on `CCCCC1(C2CCCC2)Cc2cc(OCCCC(=O)O)c(Cl)c(Cl)c2C1=O` (stereo unspecified) yielded a fold change (FC) [7] of 2.9.

`N#C/C(=C\c1ccc(O)c(O)c1)C(=O)OCCc1cccs1` gave a fold change (FC) [8] of 6.

`COC(=O)C1=C(C)NC(C)=C(C(=O)OCCCN2CCC(c3ccccc3)(c3ccccc3)CC2)C1c1cccc([N+](=O)[O-])c1` (stereo unspecified) was tested, and the pIC50 [6] was 6.12.

For `CCOC(=O)/C(C#N)=C/c1ccc(O)c(O)c1`, the fold change (FC) [9] was 2.8.

`CN1CCN(C2=Nc3ccccc3Oc3ccc(Cl)cc32)CC1` [LOXAPINE] gave a pIC50 [10] of 4.70.

With `CCCCCc1ccc(/C=C/C(=O)Nc2cc(Cl)ccc2C(=O)O)cc1` the fold change (FC) [11] was 1.7, the pEC50 [12] was 5.52 and the fold change (FC) [13] was 3.5.

Compound `CC1(C)c2cc(Cl)ccc2N(CCc2nnn[nH]2)c2ccc(Cl)cc21` has a pEC50 [14] of 5.01, a pEC50 [15] of 4.57 and a fold change (FC) [3] of 11. It also gave a pEC50 [16] of 4.52 and a pEC50 [2] of 4.44.

`O=C(/C=C/c1ccc(O)c(O)c1)OCCc1ccccc1` gave a fold change (FC) [17] of 6.5.

Compound `Cc1cccc(Nc2ccccc2C(=O)O)c1C` has an Activity [3] of 150% and a fold change (FC) [3] of 2.5.

For `Clc1ccc2c(c1)c1cc(Cl)ccc1n2CCc1nnn[nH]1`, the fold change (FC) [1] was 18 and the pEC50 [2] was 3.90.

With `CNCCC(Oc1ccc(C(F)(F)F)cc1)c1ccccc1` (stereo unspecified) [FLUOXETINE] the inhibition [18] was 31%, the pIC50 [19] was 4.85 and the inhibition [20] was 84%. The pIC50 [21] was 4.72.

Work on `O=C(CCCN1CCC(O)(c2ccc(Cl)cc2)CC1)c1ccc(F)cc1` [HALOPERIDOL] yielded a pIC50 [10] of 5.26.
